What was measured:
PC-3 [1] = assay: Cytotoxicity against human PC3 cells at 25 uM after 48 hrs by MTT assay relative to control; format: functional
PC-3 [2] = assay: Cytotoxicity against human PC3 cells at 5 uM after 48 hrs by MTT assay relative to control; format: functional
PC-3 [3] = assay: Growth inhibition of human PC3 cells after 48 hrs by MTT assay; format: functional, cell-based; conditions: PC-3, 48 h

| IC50 (PC-3 [3]) [µM] | Structure (SMILES) | Activity (PC-3 [1]) [%] | Activity (PC-3 [2]) [%] |
| --- | --- | --- | --- |
| – | O=C(c1ccc(O)cc1O)[C@H]1Cc2ccccc2[C@@H](C(=O)c2ccc(O)cc2O)[C@H]1c1ccccc1 | 86.3 | 46.1 |
| – | O=C(c1ccc(O)cc1O)[C@H]1[C@H](c2ccccc2)[C@H](C(=O)c2ccc(O)cc2O)[C@H]1c1ccccc1 | 88 | 29.6 |
| – | O=C(c1ccc(O)cc1O)[C@H]1[C@H](c2ccccc2)[C@H](C(=O)c2ccc(O)cc2O)[C@@H]1c1ccccc1 | 57.9 | 12.3 |
| – | O=C(c1ccc(O)cc1O)[C@@H]1[C@H](C(=O)c2ccc(O)cc2O)[C@@H](c2ccccc2)[C@H]1c1ccccc1 | 78.8 | 27.1 |
| – | O=C(c1ccc(O)cc1O)[C@@H]1Cc2ccccc2[C@H](C(=O)c2ccc(O)cc2O)[C@@H]1c1ccccc1 | 73.4 | 22.3 |
| – | O=C(c1ccc(O)cc1O)[C@@H]1[C@@H](C(=O)c2ccc(O)cc2O)[C@H](c2ccccc2)[C@@H]1c1ccccc1 | 75.5 | 29 |
| 3.8 | O=C(c1ccc(O)cc1O)[C@@H]1[C@@H](C(=O)c2ccc(O)cc2O)[C@H](c2ccccc2)[C@H]1c1ccccc1 | 96.3 | 41.2 |
| – | O=C(/C=C/c1ccccc1)c1ccc(O)cc1O [2',4'-DIHYDROXYCHALCONE] | 66.2 | 16.6 |
| 3.5 | O=C(c1ccc(O)cc1O)[C@H]1[C@H](C(=O)c2ccc(O)cc2O)[C@@H](c2ccccc2)[C@@H]1c1ccccc1 | 97.6 | 49.7 |
| – | O=C(c1ccc(O)cc1O)[C@H]1[C@H](c2ccccc2)[C@@H](C(=O)c2ccc(O)cc2O)[C@@H]1c1ccccc1 | 76.7 | 12.8 |
| – | O=C(c1ccc(O)cc1O)[C@H]1[C@H](C(=O)c2ccc(O)cc2O)[C@H](c2ccccc2)[C@@H]1c1ccccc1 | 87.6 | 30.7 |
